In patent US9533987B2, “Heterocyclic derivates” (KALVISTA PHARMACEUTICALS LIMITED, priority 2013, dated 2017):

What was measured:
[1] = target: Human plasma kallikrein (Homo sapiens (Human), UniProt P03952); test: Determination of the IC50 for plasma kallikrein (fluorogenic substrate H-DPro-Phe-Arg-AFC); format: biochemical; conditions: 37° C., read-out: IC50 (human PKaI)
Procedure: Determination of the IC50 for Plasma Kallikrein
(§1) Human plasma kallikrein (Protogen) was incubated at 37° C. with the fluorogenic substrate H-DPro-Phe-Arg-AFC and various concentrations of the test compound. Residual enzyme activity (initial rate of reaction) was determined by measuring the change in […] at 410 nm and the IC50 value for the test compound was determined.

[2] = target: Human KLK1 (Homo sapiens (Human), UniProt P06870); test: Determination of the IC50 for KLK1 (fluorogenic substrate H-DVal-Leu-Arg-AFC); format: biochemical; conditions: 37° C.
Procedure: Determination of the IC50 for KLK1
as §1, with “KLK1 (Callbiochem)” for “plasma kallikrein (Protogen)”, “H-DVal-Leu-Arg-AFC” for “H-DPro-Phe-Arg-AFC”

[3] = target: Factor XIIa (Homo sapiens (Human), UniProt P00748); test: Determination of enzyme selectivity, Factor XIIa; format: biochemical; conditions: substrate at Km concentration
Procedure: (§2) Determination of Enzyme Selectivity
(§3) Human serine protease enzymes plasmin, thrombin, trypsin, Factor Xa and Factor XIIa were assayed for enzymatic activity using an appropriate fluorogenic substrate. Protease activity was measured by monitoring the accumulation of liberated fluorescence from the substrate over 5 minutes. The linear rate of fluorescence increase per minute was expressed as percentage (%) activity. The Km for the cleavage of each substrate was determined by standard transformation of the Michaelis-Menten equation.

[4] = Pharmacokinetics following a single oral dose in male Sprague-Dawley rats; format: in vivo; conditions: rat, plasma
Procedure: Pharmacokinetic studies of the compounds in Table 16 were performed to assess the pharmacokinetics following a single oral dose in male Sprague-Dawley rats. […] Following dosing, blood samples were collected over a period of 24 hours. Sample times were 5, 15 and 30 minutes then 1, 2, 4, 6, 8, 12 and 24 hours. Following collection, blood samples were centrifuged and the plasma fraction analysed for concentration of test compound by LCMS.

[5] = in vivo; cited from earlier work
[6] = test system: diabetic rats; conditions: cited from earlier work
[7] = in vivo; cited from earlier work; remark: listed apart in the source
[8] = target: thrombin (Homo sapiens (Human), UniProt P00734); test: Determination of enzyme selectivity, thrombin; format: biochemical; conditions: substrate at Km concentration
Procedure: as §2, §3

[9] = target: trypsin; test: Determination of enzyme selectivity, trypsin; format: biochemical, human; conditions: substrate at Km concentration
Procedure: as §2, §3

[10] = target: plasmin (Homo sapiens (Human), UniProt P00747); test: Determination of enzyme selectivity, plasmin; format: biochemical; conditions: substrate at Km concentration
Procedure: as §2, §3

Sequence of Human plasma kallikrein (P03952 391-638): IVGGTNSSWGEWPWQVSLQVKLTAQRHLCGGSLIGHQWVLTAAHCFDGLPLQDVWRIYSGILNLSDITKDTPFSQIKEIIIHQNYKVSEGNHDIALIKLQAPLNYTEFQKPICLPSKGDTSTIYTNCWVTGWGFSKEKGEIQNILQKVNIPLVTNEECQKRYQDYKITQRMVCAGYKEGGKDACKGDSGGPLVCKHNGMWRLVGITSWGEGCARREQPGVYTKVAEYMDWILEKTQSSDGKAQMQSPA
Sequence of Human plasma kallikrein (P03952 20-390 partner): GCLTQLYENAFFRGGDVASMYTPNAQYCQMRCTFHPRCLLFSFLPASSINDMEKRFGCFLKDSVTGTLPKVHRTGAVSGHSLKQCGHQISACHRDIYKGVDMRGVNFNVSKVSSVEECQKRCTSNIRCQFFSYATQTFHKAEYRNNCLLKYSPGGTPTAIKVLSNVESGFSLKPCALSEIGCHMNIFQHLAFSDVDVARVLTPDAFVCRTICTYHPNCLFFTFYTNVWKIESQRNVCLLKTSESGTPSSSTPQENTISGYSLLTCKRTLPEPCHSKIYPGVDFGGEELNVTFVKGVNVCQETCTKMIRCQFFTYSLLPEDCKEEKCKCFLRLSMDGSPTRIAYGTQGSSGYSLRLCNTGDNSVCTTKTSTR
Sequence of Human KLK1 (P06870 25-262): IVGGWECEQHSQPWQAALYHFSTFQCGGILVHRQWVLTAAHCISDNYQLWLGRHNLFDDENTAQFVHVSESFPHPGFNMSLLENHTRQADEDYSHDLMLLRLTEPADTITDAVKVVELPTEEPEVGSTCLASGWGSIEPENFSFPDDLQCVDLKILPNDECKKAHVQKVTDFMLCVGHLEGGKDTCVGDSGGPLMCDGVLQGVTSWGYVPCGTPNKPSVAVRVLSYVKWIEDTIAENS
Sequence of Factor XIIa (P00748 373-615): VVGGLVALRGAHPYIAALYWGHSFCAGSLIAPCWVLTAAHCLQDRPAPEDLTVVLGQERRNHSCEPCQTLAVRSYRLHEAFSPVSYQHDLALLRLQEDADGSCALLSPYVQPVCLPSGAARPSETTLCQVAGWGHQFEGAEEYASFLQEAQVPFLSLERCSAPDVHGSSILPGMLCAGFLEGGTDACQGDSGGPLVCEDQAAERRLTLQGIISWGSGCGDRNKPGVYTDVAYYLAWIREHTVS
Sequence of plasmin (P00747 581-810): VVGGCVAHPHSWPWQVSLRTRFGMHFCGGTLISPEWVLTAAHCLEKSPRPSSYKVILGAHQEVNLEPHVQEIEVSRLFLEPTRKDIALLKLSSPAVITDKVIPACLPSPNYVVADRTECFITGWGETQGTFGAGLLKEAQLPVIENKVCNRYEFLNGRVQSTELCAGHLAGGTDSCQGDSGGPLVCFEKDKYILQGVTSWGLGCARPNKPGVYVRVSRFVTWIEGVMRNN
Sequence of plasmin (P00747 97-580 partner): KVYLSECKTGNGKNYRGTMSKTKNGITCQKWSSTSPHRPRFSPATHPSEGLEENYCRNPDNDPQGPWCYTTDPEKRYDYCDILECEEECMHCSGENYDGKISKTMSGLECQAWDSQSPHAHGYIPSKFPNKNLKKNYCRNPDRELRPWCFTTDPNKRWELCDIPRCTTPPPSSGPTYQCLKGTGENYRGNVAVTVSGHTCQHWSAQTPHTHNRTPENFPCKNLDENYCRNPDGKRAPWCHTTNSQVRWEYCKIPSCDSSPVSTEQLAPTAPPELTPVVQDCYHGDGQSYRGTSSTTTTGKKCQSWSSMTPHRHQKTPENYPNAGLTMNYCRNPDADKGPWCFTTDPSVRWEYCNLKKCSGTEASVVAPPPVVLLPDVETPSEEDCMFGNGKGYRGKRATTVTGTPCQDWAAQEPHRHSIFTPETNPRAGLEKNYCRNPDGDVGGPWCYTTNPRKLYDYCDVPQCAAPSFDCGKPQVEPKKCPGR

| Molecule | IC50 [1] [µM] | IC50 [2] [µM] | IC50 [3] [nM] | other results |
| --- | --- | --- | --- | --- |
| O=C(NCc1cccc2[nH]ncc12)c1cn(Cc2ccc(Cn3ccccc3=O)cc2)nc1C(F)(F)F [Example 126, 1-[4-(2-Oxo-2H-pyridin-1-ylmethyl)-benzyl]-3-trifluoromethyl-1H-pyrazole-4-carboxylic acid (1H-indazol-4-ylmethyl)-amide] | 0.0229 | > 10 | > 10000 | Cmax ([4]; single po dose 10 mg/kg): 56 ng/mL; Tmax ([4]; single po dose 10 mg/kg): 30 min |
| Nc1nccc2cc(CNC(=O)c3cn(Cc4ccc(N5CCCC5)nc4)nc3C(F)(F)F)ccc12 [Example 24, 1-(6-Pyrrolidin-1-yl-pyridin-3-ylmethyl)-3-trifluoromethyl-1H-pyrazole-4-carboxylic acid (1-amino-isoquinolin-6-ylmethyl)-amide] | 0.00966 | > 4 | > 1000 | Cmax ([4]; single po dose 4 mg/kg): 97 ng/mL; Tmax ([4]; single po dose 4 mg/kg): 420 min |
| Ecallantide |  |  |  | anaphylactic reactions [5]: anaphylactic reactions |
| Cc1cnn(Cc2ccc(Cn3cc(C(=O)NCc4ccc5c(N)nccc5c4)c(C(F)(F)F)n3)cc2)c1 [Example 36, 1-[4-(4-Methyl-pyrazol-1-ylmethyl)-benzyl]-3-trifluoromethyl-1H-pyrazole-4-carboxylic acid (1-amino-isoquinolin-6-ylmethyl)-amide] | 0.00216 | > 40 | > 10000 | Cmax ([4]; single po dose 10 mg/kg): 642 ng/mL; Tmax ([4]; single po dose 10 mg/kg): 75 min |
| N=C(N)c1ccc(CNC(=O)c2cnn(Cc3ccccc3)c2)cc1 [ASP-440] |  |  |  | effect on retinal vascular permeability and retinal blood flow abnormalities [6]: ameliorated both retinal vascular permeability and retinal blood flow abnormalities; oral availability [7]: poor oral availability |
| Cc1cc(C(=O)NCc2ccc3c(N)nccc3c2)c(C)n1Cc1csc(-c2ccccc2)n1 [Example 1, 2,5-Dimethyl-1-(2-phenyl-thiazol-4-ylmethyl)-1H-pyrrole-3-carboxylic acid (1-amino-isoquinolin-6-ylmethyl)-amide] | 0.0547 | > 10 | > 10000 | IC50 [8]: > 40000 nM; IC50 [9]: > 40000 nM; IC50 [10]: > 40000 nM |
| Cc1cnn(Cc2ccc(Cn3cc(C(=O)NCc4cnc5[nH]ccc5c4)cn3)cc2)c1 [Example 117, 1-[4-(4-Methyl-pyrazol-1-ylmethyl)-benzyl]-1H-pyrazole-4-carboxylic acid (1H-pyrrolo[2,3-b]pyridin-5-ylmethyl)-amide] | 0.078 | > 10 | > 10000 | Cmax ([4]; single po dose 10 mg/kg): 98 ng/mL; Tmax ([4]; single po dose 10 mg/kg): 45 min |
| Nc1nccc2cc(CNC(=O)c3cn(Cc4ccnc(N5CCC(F)(F)C5)c4)nc3C(F)(F)F)ccc12 [Example 56, 1-[2-(3,3-Difluoro-pyrrolidin-1-yl)-pyridin-4-ylmethyl]-3-trifluoromethyl-1H-pyrazole-4-carboxylic acid (1-amino-isoquinolin-6-ylmethyl)-amide] | 0.0718 | > 10 | > 10000 |  |
| Cc1cnn(Cc2ccc(Cn3cc(C(=O)NCc4ccc5c(N)nccc5c4)c(C)n3)cc2)c1 [Example 11, 3-Methyl-1-[4-(4-methyl-pyrazol-1-ylmethyl)-benzyl]-1H-pyrazole-4-carboxylic acid (1-amino-isoquinolin-6-ylmethyl)-amide] | 0.00189 | 8.86 | > 10000 | Cmax ([4]; single po dose 10 mg/kg): 134 ng/mL; Tmax ([4]; single po dose 10 mg/kg): 23 min |
| Nc1nccc2cc(CNC(=O)c3cnn(Cc4ccc(COc5cccc(F)n5)cc4)c3)ccc12 [Example 50, 1-[4-(6-Fluoro-pyridin-2-yloxymethyl)-benzyl]-1H-pyrazole-4-carboxylic acid (1-amino-isoquinolin-6-ylmethyl)-amide] | 0.203 | > 40 | > 40000 |  |
| Nc1nccc2cc(CNC(=O)c3cnn(Cc4ccc(Oc5ccccn5)cc4)c3)ccc12 [Example 49, 1-[4-(Pyridin-2-yloxy)-benzyl]-1H-pyrazole-4-carboxylic acid (1-amino-isoquinolin-6-ylmethyl)-amide] | 0.186 | 8.09 | > 40000 |  |
| CCn1c(C(=O)NCc2ccc3c(N)nccc3c2)cc(C)c1Cc1ccc(Cn2ccccc2=O)cc1 [Example 6, 1-Ethyl-4-methyl-5-[4-(2-oxo-2H-pyridin-1-ylmethyl)-benzyl]-1H-pyrrole-2-carboxylic acid (1-amino-isoquinolin-6-ylmethyl)-amide] | 9.46 | 9.46 | > 10000 |  |
| O=C(NCc1cnc2[nH]ccc2c1)c1cnn(Cc2ccc(Oc3ccccn3)cc2)c1 [Example 107, 1-[4-(Pyridin-2-yloxy)-benzyl]-1H-pyrazole-4-carboxylic acid (1H-pyrrolo[2,3-b]pyridin-5-ylmethyl)-amide] | 2.3 | 38.1 | > 40000 |  |
| Nc1nccc2cc(CNC(=O)c3cnn(CCc4ccc5c(c4)OCCO5)c3)ccc12 [Example 45, 1-[2-(2,3-Dihydro-benzo[1,4]dioxin-6-yl)-ethyl]-1H-pyrazole-4-carboxylic acid (1-amino-isoquinolin-6-ylmethyl)-amide] | 3.06 | 18.6 | > 40000 |  |
| C[C@@H]1CCN(c2cc(Cn3cc(C(=O)NCc4ccc5c(N)nccc5c4)c(C(F)(F)F)n3)ccn2)C1 [Example 67, 1-[2-((R)-3-Methyl-pyrrolidin-1-yl)-pyridin-4-ylmethyl]-3-trifluoromethyl-1H-pyrazole-4-carboxylic acid (1-amino-isoquinolin-6-ylmethyl)-amide] | 0.108 | 8.88 | > 10000 |  |
| Cc1cnn(Cc2ccc(Cn3cc(C(=O)NCc4ccc5c(N)nccc5c4)c(C4CC4)n3)cc2)c1 [Example 12, 3-Cyclopropyl-1-[4-(4-methyl-pyrazol-1-ylmethyl)-benzyl]-1H-pyrazole-4-carboxylic acid (1-amino-isoquinolin-6-ylmethyl)-amide] | 0.00258 | 6.06 | > 10000 | Cmax ([4]; single po dose 10 mg/kg): 155 ng/mL; Tmax ([4]; single po dose 10 mg/kg): 30 min |
| Cc1cnn(Cc2ccc(Cn3cc(C(=O)NCc4ccc5[nH]c(C)cc5c4)c(C(F)(F)F)n3)cc2)c1 [Example 110, 1-[4-(4-Methyl-pyrazol-1-ylmethyl)-benzyl]-3-trifluoromethyl-1H-pyrazole-4-carboxylic acid (2-methyl-1H-indol-5-ylmethyl)-amide] | 0.562 | > 10 | > 10000 |  |
